Test results: patent publication US6737383B1, “Herbicidal oxadiazolidines” (priority 1999, dated 2004)

Key:
cocklebur = assay: Test B pre/postemergence cocklebur; format: in vivo, Xanthium strumarium; details: for Cocklebur plant response rating: scale of 0 to 10 where 0 is no effect and 10 is complete control
Summary of the method: (§1)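 Response is a visual 0-to-10 score relative to untreated plants, where 0 means no effect and 10 means complete control, taken twelve to sixteen days after application. Treatments went onto soil at planting and onto foliage of 1- to 4-leaf plants, using a surfactant-containing non-phytotoxic solvent.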

giant foxtail = assay: Test B pre/postemergence giant foxtail; format: in vivo, Setaria faberii; details: for Giant foxtail plant response rating: scale of 0 to 10 where 0 is no effect and 10 is complete control
Summary of the method: as §1

soybean = assay: Test B pre/postemergence soybean; format: in vivo, Glycine max; details: for Soybean plant response rating: scale of 0 to 10 where 0 is no effect and 10 is complete control
Summary of the method: as §1

rice = assay: Test B flood test rice; format: in vivo, Oryza sativa
Summary of the method: (§2)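 Each value is a visual injury score relative to controls, with 10 meaning complete control and 0 no effect. Evaluation took place twelve to sixteen days after the 2-leaf-stage plants were treated and kept in the greenhouse.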

blackgrass = assay: Test B pre/postemergence blackgrass; format: in vivo, Alopecurus myosuroides; details: for Blackgrass plant response rating: scale of 0 to 10 where 0 is no effect and 10 is complete control
Summary of the method: as §1

surinam grass = assay: Test B pre/postemergence surinam grass; format: in vivo, Brachiaria decumbens; details: for B. signalgrass plant response rating: scale of 0 to 10 where 0 is no effect and 10 is complete control
Summary of the method: as §1

corn = assay: Test B pre/postemergence corn; format: in vivo, Zea mays; details: for Corn plant response rating: scale of 0 to 10 where 0 is no effect and 10 is complete control
Summary of the method: as §1

sugar beet = assay: Test B pre/postemergence sugar beet; format: in vivo, Beta vulgaris; details: for Sugarbeets plant response rating: scale of 0 to 10 where 0 is no effect and 10 is complete control
Summary of the method: as §1

velvetleaf = assay: Test B pre/postemergence velvetleaf; format: in vivo, Abutilon theophrasti; details: for Velvetleaf plant response rating: scale of 0 to 10 where 0 is no effect and 10 is complete control
Summary of the method: as §1

wild oat = assay: Test B pre/postemergence wild oat; format: in vivo, Avena fatua; details: for Wild oats plant response rating: scale of 0 to 10 where 0 is no effect and 10 is complete control
Summary of the method: as §1

crabgrass = assay: Test B pre/postemergence crabgrass; format: in vivo, Digitaria sanguinalis; details: for Crabgrass plant response rating: scale of 0 to 10 where 0 is no effect and 10 is complete control
Summary of the method: as §1

smallflower flatsedge = assay: Test B flood test smallflower flatsedge; format: in vivo, Cyperus difformis
Summary of the method: as §2

bamyardgrass = assay: Test B flood test barnyardgrass; format: in vivo, Echinochloa crus-galli
Summary of the method: as §2

pigweed = assay: Test B pre/postemergence pigweed; format: in vivo, Amaranthus retroflexus; details: for Redroot pigweed plant response rating: scale of 0 to 10 where 0 is no effect and 10 is complete control
Summary of the method: as §1

purple nutsedge = assay: Test B pre/postemergence purple nutsedge; format: in vivo, Cyperus rotundus; details: for Nutsedge plant response rating: scale of 0 to 10 where 0 is no effect and 10 is complete control
Summary of the method: as §1

[1] = Postemergence, Rate 125 g/ha, scale 0 to 10, 0 is no effect, 10 is complete control
[2] = Postemergence, Rate 250 g/ha, scale 0 to 10, 0 is no effect, 10 is complete control
[3] = Preemergence, Rate 62 g/ha, scale 0 to 10 (0 no effect, 10 complete control)
[4] = Rate 500 g/ha, Postemergence, scale 0 to 10, 0 no effect, 10 complete control
[5] = Rate 62 g/ha, flood test species, Pre-emergence, visual evaluation after twelve to sixteen days
[6] = Rate 125 g/ha, under heading Pre-emergence, flood test species, visual evaluation after twelve to sixteen days
[7] = Rate 250 g/ha, Pre-emergence, flood-test species, scale 0 to 10, 0 is no effect, 10 is complete control
[8] = Rate 500 g/ha, Pre-emergence, flood test species, scale 0 to 10 (0 no effect, 10 complete control)

CC(C)N(C(=O)n1oc(=O)n(CCl)c1=O)c1ccc(F)cc1 [Compound 376]
0: Plant response rating, Cocklebur (cocklebur; [1]) | Plant response rating, Cocklebur (cocklebur; [2]) | Plant response rating, Cocklebur (cocklebur; [3]) | Cocklebur plant response rating (0 to 10 scale) (cocklebur; Preemergence, Rate 125 g/ha) | Cocklebur plant response rating (cocklebur; Preemergence, Rate 250 g/ha) | Cocklebur plant response rating (cocklebur; Preemergence, Rate 500 g/ha) | Cocklebur plant response rating (cocklebur; Rate 62 g/ha, Postemergence) | Plant response rating, Cocklebur (cocklebur; [4]) | Plant response rating, Giant foxtail (giant foxtail; [1]) | Plant response rating, Giant foxtail (giant foxtail; [2]) | Plant response rating, Giant foxtail (giant foxtail; [3]) | Giant foxtail plant response rating (0 to 10 scale) (giant foxtail; Preemergence, Rate 125 g/ha) | Giant foxtail plant response rating (giant foxtail; Preemergence, Rate 250 g/ha) | Giant foxtail plant response rating (giant foxtail; Preemergence, Rate 500 g/ha) | Giant foxtail plant response rating (giant foxtail; Rate 62 g/ha, Postemergence) | Plant response rating, Giant foxtail (giant foxtail; [4]) | Plant response rating, Soybean (soybean; [1]) | Plant response rating, Soybean (soybean; [2]) | Plant response rating, Soybean (soybean; [3]) | Soybean plant response rating (0 to 10 scale) (soybean; Preemergence, Rate 125 g/ha) | Soybean plant response rating (soybean; Preemergence, Rate 250 g/ha) | Soybean plant response rating (soybean; Preemergence, Rate 500 g/ha) | Soybean plant response rating (soybean; Rate 62 g/ha, Postemergence) | Plant response rating, Soybean (soybean; [4]) | Plant response rating, Rice (0 to 10 scale, 0 is no effect, 10 is complete control) (rice; [5]) | Rice plant response rating (0 to 10 scale, 0 is no effect, 10 is complete control) (rice; [6]) | Rice plant response rating (rice; [7]) | Rice plant response rating (rice; [8]) | Plant response rating, Blackgrass (blackgrass; [1]) | Plant response rating, Blackgrass (blackgrass; [2]) | Plant response rating, Blackgrass (blackgrass; [3]) | Blackgrass plant response rating (0 to 10 scale) (blackgrass; Preemergence, Rate 125 g/ha) | Blackgrass plant response rating (blackgrass; Preemergence, Rate 250 g/ha) | Blackgrass plant response rating (blackgrass; Preemergence, Rate 500 g/ha) | Blackgrass plant response rating (blackgrass; Rate 62 g/ha, Postemergence) | Plant response rating, Blackgrass (blackgrass; [4]) | Plant response rating, B. signalgrass (surinam grass; [1]) | Plant response rating, B. signalgrass (surinam grass; [2]) | Plant response rating, B. signalgrass (surinam grass; [3]) | B. signalgrass plant response rating (0 to 10 scale, 0 is no effect, 10 is complete control) (surinam grass; Preemergence, Rate 125 g/ha) | B. signalgrass plant response rating (surinam grass; Preemergence, Rate 250 g/ha) | B. signalgrass plant response rating (surinam grass; Preemergence, Rate 500 g/ha) | B. signalgrass plant response rating (surinam grass; Rate 62 g/ha, Postemergence) | Plant response rating, B. signalgrass (surinam grass; [4]) | Plant response rating, Corn (corn; [1]) | Plant response rating, Corn (corn; [2]) | Plant response rating, Corn (corn; [3]) | Corn plant response rating (0 to 10 scale) (corn; Preemergence, Rate 125 g/ha) | Corn plant response rating (corn; Preemergence, Rate 250 g/ha) | Corn plant response rating (corn; Preemergence, Rate 500 g/ha) | Corn plant response rating (corn; Rate 62 g/ha, Postemergence) | Plant response rating, Corn (corn; [4]) | Plant response rating, Sugarbeets (sugar beet; [1]) | Plant response rating, Sugarbeets (sugar beet; [2]) | Plant response rating, Sugarbeets (sugar beet; [3]) | Sugarbeets plant response rating (0 to 10 scale) (sugar beet; Preemergence, Rate 125 g/ha) | Sugarbeets plant response rating (sugar beet; Preemergence, Rate 250 g/ha) | Sugarbeets plant response rating (sugar beet; Preemergence, Rate 500 g/ha) | Sugarbeets plant response rating (sugar beet; Rate 62 g/ha, Postemergence) | Plant response rating, Sugarbeets (sugar beet; [4]) | Plant response rating, Velvetleaf (velvetleaf; [1]) | Plant response rating, Velvetleaf (velvetleaf; [2]) | Plant response rating, Velvetleaf (velvetleaf; [3]) | Velvetleaf plant response rating (0 to 10 scale) (velvetleaf; Preemergence, Rate 125 g/ha) | Velvetleaf plant response rating (velvetleaf; Preemergence, Rate 250 g/ha) | Velvetleaf plant response rating (velvetleaf; Preemergence, Rate 500 g/ha) | Velvetleaf plant response rating (velvetleaf; Rate 62 g/ha, Postemergence) | Plant response rating, Velvetleaf (velvetleaf; [4]) | Plant response rating, Wild oats (wild oat; [1]) | Plant response rating, Wild oats (wild oat; [2]) | Plant response rating, Wild oats (wild oat; [3]) | Wild oats plant response rating (0 to 10 scale) (wild oat; Preemergence, Rate 125 g/ha) | Wild oats plant response rating (wild oat; Preemergence, Rate 250 g/ha) | Wild oats plant response rating (wild oat; Preemergence, Rate 500 g/ha) | Wild oats plant response rating (wild oat; Rate 62 g/ha, Postemergence) | Plant response rating, Wild oats (wild oat; [4]) | Plant response rating, Crabgrass (crabgrass; [1]) | Plant response rating, Crabgrass (crabgrass; [2]) | Plant response rating, Crabgrass (crabgrass; [3]) | Crabgrass plant response rating (0 to 10 scale) (crabgrass; Preemergence, Rate 125 g/ha) | Crabgrass plant response rating (crabgrass; Preemergence, Rate 250 g/ha) | Crabgrass plant response rating (crabgrass; Preemergence, Rate 500 g/ha) | Crabgrass plant response rating (crabgrass; Rate 62 g/ha, Postemergence) | Plant response rating, Crabgrass (crabgrass; [4]) | Plant response rating, S. Flatsedge (0 to 10 scale, 0 is no effect, 10 is complete control) (smallflower flatsedge; [5]) | S. Flatsedge plant response rating (0 to 10 scale, 0 is no effect, 10 is complete control) (smallflower flatsedge; [6]) | S. Flatsedge plant response rating (smallflower flatsedge; [7]) | S. Flatsedge plant response rating (smallflower flatsedge; [8]) | Plant response rating, Barnyardgrass (0 to 10 scale, 0 is no effect, 10 is complete control) (bamyardgrass; [5]) | Barnyardgrass plant response rating (0 to 10 scale, 0 is no effect, 10 is complete control) (bamyardgrass; [6]) | Barnyardgrass plant response rating (bamyardgrass; [7]) | Barnyardgrass plant response rating (bamyardgrass; [8]) | Plant response rating, Redroot pigweed (pigweed; [1]) | Plant response rating, Redroot pigweed (pigweed; [2]) | Plant response rating, Redroot pigweed (pigweed; [3]) | Redroot pigweed plant response rating (0 to 10 scale) (pigweed; Preemergence, Rate 125 g/ha) | Redroot pigweed plant response rating (pigweed; Preemergence, Rate 250 g/ha) | Redroot pigweed plant response rating (pigweed; Preemergence, Rate 500 g/ha) | Redroot pigweed plant response rating (pigweed; Rate 62 g/ha, Postemergence) | Plant response rating, Redroot pigweed (pigweed; [4]) | Plant response rating, Nutsedge (purple nutsedge; [1]) | Plant response rating, Nutsedge (purple nutsedge; [2]) | Plant response rating, Nutsedge (purple nutsedge; [3]) | Nutsedge plant response rating (0 to 10 scale) (purple nutsedge; Preemergence, Rate 125 g/ha) | Nutsedge plant response rating (purple nutsedge; Preemergence, Rate 250 g/ha) | Nutsedge plant response rating (purple nutsedge; Preemergence, Rate 500 g/ha) | Nutsedge plant response rating (purple nutsedge; Rate 62 g/ha, Postemergence) | Plant response rating, Nutsedge (purple nutsedge; [4])
